# Calls of active or inactive are those of the source. Rule as the data show it, for most assays here: actives have a measured EC50 and inactives only a lower limit.
# Tests used:
# Bcl-2-like protein 10 = target: T1, Bcl-2-like protein 10 (Homo sapiens, UniProt Q9HD36); assay: Biochemical TR3 FP assay of Bcl-B inhibitor potency, EC50 (AID 1243); format: functional
# T1 sequence (Q9HD36 whole entry): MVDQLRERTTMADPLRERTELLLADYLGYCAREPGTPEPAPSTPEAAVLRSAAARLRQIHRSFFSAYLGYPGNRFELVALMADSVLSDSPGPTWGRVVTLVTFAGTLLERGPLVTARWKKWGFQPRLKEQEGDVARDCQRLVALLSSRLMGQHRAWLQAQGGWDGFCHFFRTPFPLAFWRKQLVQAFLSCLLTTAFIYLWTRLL
# [1] = target: Neuropeptide Y receptor type 2 (Homo sapiens, UniProt P49146); assay: NPY-Y2 antagonist potency, selectivity check, dose response, counter-screen for NPY-Y1 antagonist project, cell-based (AID 1278); format: functional
# [2] = target: Neuropeptide Y receptor type 1 (Homo sapiens, UniProt P25929); assay: NPY-Y1 receptor antagonist potency, dose response, cell-based (AID 1277); format: functional
# [3] = Luminescence Cell-Based Dose Response to Identify Activators of 5'UTR Stem-Loop Driven Prion Protein mRNA Translation in H4-C Neuroglioblastoma Cells. [Related pubchem assays: 1829 (Project Summary), 1814 (Primary HTS)]; format: functional
# [4] = target: T2, RNA-binding protein pos-1 (Caenorhabditis elegans, UniProt G5EF15); assay: inhibitors of POS-1/mex-3 RNA binding, dose response, biochemical, fluorescence polarization (AID 1964);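 also: purified POS-1 fused to maltose binding protein made in E. coli; potency of compounds blocking POS-1 binding to fluorescent RNA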
# T2 sequence (G5EF15 whole entry): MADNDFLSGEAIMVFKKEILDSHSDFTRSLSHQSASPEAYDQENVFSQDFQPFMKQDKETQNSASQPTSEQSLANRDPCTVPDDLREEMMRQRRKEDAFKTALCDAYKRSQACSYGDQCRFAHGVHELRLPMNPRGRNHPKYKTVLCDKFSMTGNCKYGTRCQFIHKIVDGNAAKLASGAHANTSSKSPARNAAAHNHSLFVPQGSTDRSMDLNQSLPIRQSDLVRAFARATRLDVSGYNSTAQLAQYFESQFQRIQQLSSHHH
# [5] = Luminescence Cell-Based Dose Response HTS to Identify Activators of Luciferase Translation or Activity in H4 […] Cells. [Related pubchem assays: 1829 (Project Summary), 1814 (Primary HTS)]; format: functional
# H4 = assay: Luminescence Cell-Based Dose Response HTS to Identify Activators of 5'UTR Stem-Loop Driven Prion Protein mRNA Translation in H4 Neuroglioblastoma Cells. [Related pubchem assays: 1829 (Project Summary), 1814 (Primary HTS)]; format: functional; conditions: Homo sapiens
# [6] = target: T3, Zinc finger protein mex-5 (Caenorhabditis elegans, UniProt Q9XUB2); assay: MEX-5/TCR-2 RNA interaction inhibitors, dose response, biochemical, C. elegans, fluorescence polarization (AID 1960)
# T3 sequence (Q9XUB2 whole entry): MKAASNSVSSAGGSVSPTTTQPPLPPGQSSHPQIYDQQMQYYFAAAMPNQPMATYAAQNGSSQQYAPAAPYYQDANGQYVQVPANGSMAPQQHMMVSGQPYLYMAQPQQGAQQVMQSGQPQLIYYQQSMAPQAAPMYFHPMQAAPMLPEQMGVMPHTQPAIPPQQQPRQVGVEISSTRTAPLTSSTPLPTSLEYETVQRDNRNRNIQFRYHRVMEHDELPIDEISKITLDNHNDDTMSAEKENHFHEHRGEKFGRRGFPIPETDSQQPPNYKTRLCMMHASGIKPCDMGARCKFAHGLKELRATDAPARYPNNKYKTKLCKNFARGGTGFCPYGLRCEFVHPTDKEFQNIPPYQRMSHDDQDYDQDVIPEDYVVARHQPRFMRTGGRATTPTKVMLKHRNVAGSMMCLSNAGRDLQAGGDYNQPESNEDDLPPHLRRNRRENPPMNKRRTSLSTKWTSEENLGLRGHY
# [7] = Luminescence Cell-Based Dose Response to Identify Activators of Luciferase Translation or Activity in H4-C Neuroglioblastoma Cells. [Related pubchem assays: 1829 (Project Summary), 1814 (Primary HTS)]; format: functional
# Estrogen receptor beta = Estrogen receptor beta (Homo sapiens, UniProt Q92731);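 also: recombinant ER-beta bound to coactivator SRC1 peptide in presence of estradiol agonist; inhibitors block coactivator peptide binding and lower the FRET signal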
# [8] = target: Protein-tyrosine kinase 2-beta (Homo sapiens, UniProt Q14289);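 also: potency of inhibitors of PYK2 kinase phosphorylation of poly-GT substrate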
# [9] = Luminescence Cell-Based Dose Confirmation to Identify Activators of 5'UTR Stem-Loop Driven Alpha-Synuclein mRNA Translation in H4 Neuroglioblastoma Cells. [Related pubchem assays: 1829 (Project Summary), 1814 (Primary HTS)]; format: functional
# HeLa = assay: Cytotoxicity counterscreen assay for transcriptional activators of heat shock protein 70 (Hsp70). [Related pubchem assays: 1203, 1252 ]; format: functional; conditions: Homo sapiens;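 also: cells exposed to compound for 16 hours before readout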
# [10] = inhibitors of firefly luciferase expression or activity, dose response, H4 neuroglioma cells, luminescence (AID 1990); format: functional, cell-based
# [11] = system: Streptococcus sp. 'group A'; assay: growth inhibition of control SK(-) GAS strain, dose response, counter-screen for streptokinase expression inhibitor project, luminescence, kanamycin, BacTiterGlo, confirmation (AID 1900); format: functional, organism-based
# [12] = Luminescence Cell-Based Dose Response HTS to Identify Inhibitors of 5'UTR Stem-Loop Driven Prion Protein mRNA Translation in H4 Neuroglioblastoma Cells. [Related pubchem assays: 1827 (Project Summary), 1813 (Primary HTS)]; format: functional
# [13] = inhibitors of SNCA 5'UTR-driven reporter translation, confirmation, H4 neuroglioma cells, luminescence (AID 1988); format: functional, cell-based
# Streptokinase A = target: T4, Streptokinase A (Streptococcus pyogenes serotype M1, UniProt P10520); assay: S. pyogenes streptokinase expression inhibitors, potency, dose response, plasminogen activation absorbance, OD405 (AID 1914); format: functional, Streptococcus pyogenes M1 GAS;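 also: secreted streptokinase activity via plasminogen activation per viability signal from cell pellet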
# T4 sequence (P10520 whole entry): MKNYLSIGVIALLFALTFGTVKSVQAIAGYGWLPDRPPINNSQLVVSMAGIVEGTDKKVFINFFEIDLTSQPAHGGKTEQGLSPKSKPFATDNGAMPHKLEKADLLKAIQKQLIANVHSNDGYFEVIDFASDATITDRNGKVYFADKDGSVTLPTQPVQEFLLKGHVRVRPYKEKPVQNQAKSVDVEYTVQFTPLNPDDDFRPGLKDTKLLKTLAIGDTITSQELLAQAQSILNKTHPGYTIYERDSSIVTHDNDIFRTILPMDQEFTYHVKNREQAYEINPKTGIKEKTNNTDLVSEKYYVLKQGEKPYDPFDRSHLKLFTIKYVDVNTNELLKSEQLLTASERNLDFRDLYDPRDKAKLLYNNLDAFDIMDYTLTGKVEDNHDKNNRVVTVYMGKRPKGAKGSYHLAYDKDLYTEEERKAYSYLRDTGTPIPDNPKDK
# BJ [14] = assay: cells; format: functional, cell-based; conditions: Homo sapiens
# Estrogen receptor = target: T5, Estrogen receptor (Homo sapiens, UniProt P03372);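 also: potency for inhibiting coactivator peptide recruitment to the receptor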
# T5 sequence (P03372 whole entry): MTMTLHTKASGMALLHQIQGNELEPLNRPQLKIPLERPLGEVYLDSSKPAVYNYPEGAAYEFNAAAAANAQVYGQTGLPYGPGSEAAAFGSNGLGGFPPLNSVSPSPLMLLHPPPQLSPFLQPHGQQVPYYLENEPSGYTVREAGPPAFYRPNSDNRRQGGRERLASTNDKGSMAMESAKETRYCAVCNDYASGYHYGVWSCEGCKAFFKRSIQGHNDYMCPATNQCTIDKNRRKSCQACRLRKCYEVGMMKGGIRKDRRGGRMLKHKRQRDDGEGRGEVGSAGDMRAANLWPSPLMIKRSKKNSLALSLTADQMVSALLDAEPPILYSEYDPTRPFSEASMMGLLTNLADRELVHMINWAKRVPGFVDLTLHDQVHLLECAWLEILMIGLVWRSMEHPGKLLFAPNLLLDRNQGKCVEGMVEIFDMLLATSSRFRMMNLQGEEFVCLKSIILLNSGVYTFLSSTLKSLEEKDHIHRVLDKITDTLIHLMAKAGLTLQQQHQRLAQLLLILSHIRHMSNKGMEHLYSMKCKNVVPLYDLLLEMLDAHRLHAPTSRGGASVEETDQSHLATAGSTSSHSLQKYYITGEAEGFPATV
# [15] = target: Mothers against decapentaplegic homolog 3 (Homo sapiens, UniProt P84022); assay: SMAD3 transcription factor inhibitors, dose response (AID 715); format: functional
# BJ [16] = assay: cytotoxicity toward BJ-TERT-LT-ST fibroblasts, dose response, cell-based, RAS-independent, luminescence (AID 1935); format: functional; conditions: Homo sapiens;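 also: BJ fibroblasts immortalized with TERT plus LT and ST oncogenes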
# [17] = cytotoxicity toward DRD oncogenic fibroblasts, dose response, cell-based, non-viral oncogenic, luminescence (AID 1934); format: functional; conditions: Homo sapiens
# Streptococcus = assay: Group A Streptococcus viability loss, dose response, counter-screen for streptokinase expression inhibitor project, luminescence, BacTiterGlo (AID 1915); format: functional, organism-based;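 also: potency for reduction of bacterial viability or growth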
# BJ [18] = assay: cytotoxicity toward Ras-transformed BJeLR fibroblasts, dose response, cell-based, alamar blue fluorescence, cherrypicked samples (AID 2631); format: functional; conditions: Homo sapiens;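 also: confirmatory dose-response assay in RAS-dependent BJ fibroblasts engineered with TERT, LT and ST, with cytotoxicity read by fluorescence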
# Estrogen receptor beta, sequence (Q92731 whole entry): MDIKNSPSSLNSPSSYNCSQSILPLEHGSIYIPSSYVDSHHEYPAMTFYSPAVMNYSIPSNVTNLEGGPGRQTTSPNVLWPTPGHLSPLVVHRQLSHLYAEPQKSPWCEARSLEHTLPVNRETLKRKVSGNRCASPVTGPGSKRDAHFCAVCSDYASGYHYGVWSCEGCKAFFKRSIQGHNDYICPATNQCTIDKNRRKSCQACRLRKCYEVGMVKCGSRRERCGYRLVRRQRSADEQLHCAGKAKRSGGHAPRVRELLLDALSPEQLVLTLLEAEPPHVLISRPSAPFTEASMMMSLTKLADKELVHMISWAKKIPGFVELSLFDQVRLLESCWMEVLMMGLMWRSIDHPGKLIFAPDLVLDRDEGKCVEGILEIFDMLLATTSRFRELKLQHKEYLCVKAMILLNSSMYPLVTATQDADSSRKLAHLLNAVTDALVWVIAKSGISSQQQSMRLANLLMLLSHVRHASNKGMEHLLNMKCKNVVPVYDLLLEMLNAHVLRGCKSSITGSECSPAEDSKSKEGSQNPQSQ
# Neuropeptide Y receptor type 1, sequence (P25929 whole entry): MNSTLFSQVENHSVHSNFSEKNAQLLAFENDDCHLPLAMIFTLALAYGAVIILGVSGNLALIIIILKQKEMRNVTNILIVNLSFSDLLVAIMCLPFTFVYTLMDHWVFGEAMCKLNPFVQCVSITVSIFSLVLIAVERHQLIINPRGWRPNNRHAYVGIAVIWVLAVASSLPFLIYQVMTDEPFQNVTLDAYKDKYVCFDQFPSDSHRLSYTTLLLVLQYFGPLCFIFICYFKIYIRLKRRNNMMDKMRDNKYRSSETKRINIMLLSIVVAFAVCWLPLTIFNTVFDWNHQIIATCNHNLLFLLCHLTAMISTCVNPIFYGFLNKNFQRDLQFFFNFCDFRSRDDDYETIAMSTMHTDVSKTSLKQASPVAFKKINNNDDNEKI
# Mothers against decapentaplegic homolog 3, sequence (P84022 whole entry): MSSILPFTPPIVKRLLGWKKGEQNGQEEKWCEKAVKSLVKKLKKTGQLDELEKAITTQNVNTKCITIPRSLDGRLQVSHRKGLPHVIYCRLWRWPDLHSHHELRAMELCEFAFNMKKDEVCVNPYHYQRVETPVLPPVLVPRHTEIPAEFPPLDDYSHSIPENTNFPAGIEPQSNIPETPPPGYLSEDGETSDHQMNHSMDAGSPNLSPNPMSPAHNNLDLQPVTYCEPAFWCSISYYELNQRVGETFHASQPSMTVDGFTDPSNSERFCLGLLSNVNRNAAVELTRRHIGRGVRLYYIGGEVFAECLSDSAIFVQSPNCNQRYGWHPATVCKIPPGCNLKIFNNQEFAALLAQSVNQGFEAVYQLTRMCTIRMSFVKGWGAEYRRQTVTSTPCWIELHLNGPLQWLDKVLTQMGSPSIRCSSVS
# Protein-tyrosine kinase 2-beta, sequence (Q14289 whole entry): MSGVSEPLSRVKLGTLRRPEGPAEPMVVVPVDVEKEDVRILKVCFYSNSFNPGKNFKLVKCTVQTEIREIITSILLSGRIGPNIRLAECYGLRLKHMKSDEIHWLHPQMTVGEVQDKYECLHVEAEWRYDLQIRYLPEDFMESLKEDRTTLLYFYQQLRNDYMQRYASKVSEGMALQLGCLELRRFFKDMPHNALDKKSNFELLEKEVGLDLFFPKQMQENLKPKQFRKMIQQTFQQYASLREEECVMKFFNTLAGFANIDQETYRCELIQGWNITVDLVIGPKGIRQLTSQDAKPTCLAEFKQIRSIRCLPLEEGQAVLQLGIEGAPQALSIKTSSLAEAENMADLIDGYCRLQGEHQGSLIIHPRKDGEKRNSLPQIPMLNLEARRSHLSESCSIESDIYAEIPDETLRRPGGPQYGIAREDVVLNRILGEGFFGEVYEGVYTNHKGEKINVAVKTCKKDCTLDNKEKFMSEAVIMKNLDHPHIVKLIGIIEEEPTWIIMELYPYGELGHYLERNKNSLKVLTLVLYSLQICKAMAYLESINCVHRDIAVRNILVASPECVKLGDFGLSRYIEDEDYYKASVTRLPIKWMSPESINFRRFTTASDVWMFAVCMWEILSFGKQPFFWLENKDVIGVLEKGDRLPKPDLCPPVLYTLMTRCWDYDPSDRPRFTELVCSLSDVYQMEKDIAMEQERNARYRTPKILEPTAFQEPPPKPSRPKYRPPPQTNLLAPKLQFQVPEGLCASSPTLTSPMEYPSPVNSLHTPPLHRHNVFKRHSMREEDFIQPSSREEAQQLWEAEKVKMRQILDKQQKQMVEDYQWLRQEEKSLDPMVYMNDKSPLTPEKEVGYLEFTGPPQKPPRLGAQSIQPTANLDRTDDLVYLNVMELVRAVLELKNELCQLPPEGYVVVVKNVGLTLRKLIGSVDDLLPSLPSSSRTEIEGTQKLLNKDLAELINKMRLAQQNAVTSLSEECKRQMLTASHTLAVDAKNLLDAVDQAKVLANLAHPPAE
# Neuropeptide Y receptor type 2, sequence (P49146 whole entry): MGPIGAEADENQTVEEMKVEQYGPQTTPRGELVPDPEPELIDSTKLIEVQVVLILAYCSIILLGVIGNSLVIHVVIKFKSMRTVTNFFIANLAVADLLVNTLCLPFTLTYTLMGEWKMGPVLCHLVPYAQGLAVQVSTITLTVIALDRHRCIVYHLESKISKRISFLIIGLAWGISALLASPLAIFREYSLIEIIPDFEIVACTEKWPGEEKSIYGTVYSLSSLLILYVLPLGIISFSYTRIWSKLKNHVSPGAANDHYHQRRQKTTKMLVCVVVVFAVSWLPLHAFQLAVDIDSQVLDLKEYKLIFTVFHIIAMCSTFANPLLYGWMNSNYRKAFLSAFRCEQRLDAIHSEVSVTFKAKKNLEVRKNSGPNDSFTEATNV
smiles,measurement,setting,value
O=C1C=CC(=O)C(/C(=C/NCc2ccccc2)[N+](=O)[O-])=C1,EC50,Bcl-2-like protein 10,5.7 µM (active)
Cc1nn(-c2ccccc2)c2sc(C(=O)O)cc12,IC50,[1],> 35 µM (not active)
same,IC50,[2],> 35 µM (not active)
CCc1c(C)nc(SCC(=O)c2cccs2)c(C#N)c1C,EC50,[3],0.332 µM (active)
same,EC50,[4],11.5 µM (inconclusive)
same,EC50,[5],< 0.1 µM (inconclusive)
same,EC50,H4,0.149 µM (active)
same,EC50,[6],36.7 µM (inconclusive)
same,EC50,[7],0.302 µM (active)
same,IC50,Estrogen receptor beta,> 50 µM (not active)
same,IC50,[8],> 69.5 µM (not active)
same,EC50,[9],0.552 µM (active)
Cn1c(CCN2CCOCC2)nc2cc(NC(=O)COc3ccc(Cl)cc3)ccc21,CC50,HeLa,> 99 µM (not active)
CCOC(=O)c1c2c(n(C)c1COC)C(=O)C(=O)c1ccc(Br)cc1-2,EC50,[10],4.87 µM (active)
same,EC50,[11],1.13 µM (active)
same,EC50,[12],5.16 µM (active)
same,EC50,[13],1.44 µM (active)
same,EC50,Streptokinase A,> 150 µM (not active)
same,EC50,BJ [14],3.08 µM (active)
same,IC50,Estrogen receptor,8.87 µM (active)
same,IC50,[15],0.771 µM (active)
same,EC50,BJ [16],1.08 µM (inconclusive)
same,EC50,[17],2.36 µM (active)
same,EC50,Streptococcus,24.3 µM (active)
same,EC50,BJ [18],0.562 µM (active)

# Reference: ChEMBL document CHEMBL1201862, “PubChem BioAssay data set” (2004)
